One substance from patent US20060084599A1, “Compositions, methods and kits relating to notch signaling” (Maine Medical Center, priority 2003, published 2006) can be followed below.

The test system of test [1] is FGF1 transcript. The test is described as follows: Nuclear run-on analysis of FGF1 transcription. It counts as cell-based, murine. The method, then: Approximately either 1×10^7 Swiss or NIH 3T3 cells were harvested and washed using ice-cold 50 mM sodium phosphate buffer, pH 7.0 containing 15 mM NaCl. Cell pellets were lysed in 4 ml of ice-cold 10 mM Tris-HCl, pH 7.5, containing 3 mM CaCl2, 3 mM MgCl2, 10 mM NaCl, and 0.5 % NP-40. The nuclear pellet was resuspended in glycerol storage buffer (50 mM Tris-HCl, pH 8.3 containing 40% glycerol, 5 mM MgCl2 and 0.1 mM EDTA), the nuclei were snap frozen, and stored in liquid nitrogen. For run-on transcription, 200 μl aliquots of the frozen nuclei were added to 200 μl of reaction buffer (10 mM Tris-HCl, pH 8.3 containing 5 mM MgCl2, 300 mM KCl, 5 mM DTT, 1 mM each of ATP, CTP, and GTP, 40 units of RNase inhibitor and 100 μCi of [^32P]UTP (800 Ci/mmol; Amersham), and incubated at 30° C. for 30 minutes. The mixture was treated with 100 units of RNase-free DNase I for 30 minutes at 30° C. and then incubated with 400 μl of 20 mM Tris-HCl, pH 7.5, containing 2% SDS, 10 mM EDTA, […] proteinase K for 30 minutes at 42° C. Following phenol/CHCl3 extraction, the labelled transcripts were precipitated with isopropanol and dissolved in 50 μl of 10 mM TES, pH 7.5, containing 10 mM EDTA and 0.2% SDS. Linearized plasmid constructs (0.4 μg/dot) containing either the fgf1 or gapdh cDNA were alkali denatured and immobilized onto a Hybond-N^+ membrane (Amersham). Hybridization was performed in 1 ml of ULTRA Hyb (Ambion), with 5×10^6 cpm of radiolabeled RNA and yeast RNA (10 μg/ml) for 18 hours with shaking at 50° C. Membranes were washed twice with washing buffer (2×SSC containing 0.1% SDS) at 50° C. and analyzed using a phosphoimager (Molecular Dynamics).

Test [2] deals with T1, human Jagged1 (Homo sapiens, UniProt P78504).
T1 construct: the full-length human Jagged1 transcript was in vitro translated; made in house; host or cells: cell-free: T7-coupled reticulocyte lysate system (Promega)
The test is described as follows: Thrombin cleavage of in vitro translated Jagged1 and Edman microsequencing. It counts as biochemical. The conditions noted are these: Edman chemistry of 95 kDa fragment. The method, then:
(§1) A plasmid containing human Jagged1 (Zinrin et al., 1996, J. Biol. Chem. 271:32499-32502) was in vitro transcribed and in vitro translated in the presence of a (^35S)-Met/Cys protein-labeling mixture (Amersham) using the T7-coupled reticulocyte lysate system according to the manufacturer's instructions (Promega) in a total volume of 50 μl. After 60 minutes incubation at 30° C., 0.05% DTT was added, half of the reaction mixture incubated with 10 μg α-thrombin for 15 minutes at 37° C., and the reaction stopped by boiling in the presence of SDS-PAGE sample buffer. The samples were resolved by 12% SDS-PAGE, transferred to a nitrocellulose membrane, and analyzed by autoradiography. The bands corresponding to the thrombin cleavage products were excised and subjected to automated Edman microsequencing (Applied Bio Sciences). The products of each cycle were collected prior to resolution by HPLC, added to liquid scintillation fluid (Beckman) and the (^35S) samples quantitated by liquid scintillation spectroscopy (Beckman).

Test [3] deals with T2, human Jagged1 (Homo sapiens, UniProt P78504, A1171G).
T2 construct: the full-length human Jagged1 transcript was in vitro translated; made in house; host or cells: cell-free: T7-coupled reticulocyte lysate system (Promega)
The test is described as above. The following applies: α-thrombin, 15 minutes at 37° C. It counts as biochemical. The method, then: as §1

The target in test [4] is T3, Delta1 (Homo sapiens, UniProt O00548).
T3 construct: made in house; host or cells: cell-free in vitro translation (system not described for Delta1)
The test is described as follows: Thrombin treatment of in vitro translated Delta1. It counts as biochemical.

T1 sequence (P78504 34-1218 A1171G): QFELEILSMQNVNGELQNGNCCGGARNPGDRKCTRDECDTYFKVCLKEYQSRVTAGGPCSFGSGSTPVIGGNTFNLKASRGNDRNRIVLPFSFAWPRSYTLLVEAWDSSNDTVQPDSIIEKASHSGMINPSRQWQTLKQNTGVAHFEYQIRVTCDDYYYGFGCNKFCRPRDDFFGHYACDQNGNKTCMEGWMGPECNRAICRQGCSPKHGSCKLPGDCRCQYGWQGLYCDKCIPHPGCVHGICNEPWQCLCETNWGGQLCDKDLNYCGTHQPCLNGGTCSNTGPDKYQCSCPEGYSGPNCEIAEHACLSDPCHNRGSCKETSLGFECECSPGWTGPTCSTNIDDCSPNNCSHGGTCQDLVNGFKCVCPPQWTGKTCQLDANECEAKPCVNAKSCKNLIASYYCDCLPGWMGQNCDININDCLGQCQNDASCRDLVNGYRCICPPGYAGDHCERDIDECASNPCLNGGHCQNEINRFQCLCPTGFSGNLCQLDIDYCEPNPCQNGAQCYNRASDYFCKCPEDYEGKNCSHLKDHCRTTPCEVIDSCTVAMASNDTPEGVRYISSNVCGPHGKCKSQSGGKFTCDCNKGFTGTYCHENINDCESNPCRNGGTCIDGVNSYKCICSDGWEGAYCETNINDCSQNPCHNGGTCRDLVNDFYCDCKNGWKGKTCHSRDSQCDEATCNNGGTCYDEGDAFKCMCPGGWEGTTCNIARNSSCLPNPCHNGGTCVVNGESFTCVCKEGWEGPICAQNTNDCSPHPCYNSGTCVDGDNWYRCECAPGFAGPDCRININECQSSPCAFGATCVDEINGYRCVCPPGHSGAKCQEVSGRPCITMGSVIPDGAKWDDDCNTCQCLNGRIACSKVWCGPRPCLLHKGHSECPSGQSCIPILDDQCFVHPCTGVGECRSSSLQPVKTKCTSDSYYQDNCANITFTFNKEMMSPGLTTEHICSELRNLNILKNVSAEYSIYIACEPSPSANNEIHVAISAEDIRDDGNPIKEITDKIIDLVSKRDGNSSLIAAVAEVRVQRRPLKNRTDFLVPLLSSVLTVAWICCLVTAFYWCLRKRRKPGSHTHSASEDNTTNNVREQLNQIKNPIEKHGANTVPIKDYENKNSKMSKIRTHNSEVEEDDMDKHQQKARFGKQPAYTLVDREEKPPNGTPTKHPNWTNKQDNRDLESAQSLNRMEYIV
T2 sequence (P78504 34-1218 A1171G): as above
T3 sequence (O00548 18-723): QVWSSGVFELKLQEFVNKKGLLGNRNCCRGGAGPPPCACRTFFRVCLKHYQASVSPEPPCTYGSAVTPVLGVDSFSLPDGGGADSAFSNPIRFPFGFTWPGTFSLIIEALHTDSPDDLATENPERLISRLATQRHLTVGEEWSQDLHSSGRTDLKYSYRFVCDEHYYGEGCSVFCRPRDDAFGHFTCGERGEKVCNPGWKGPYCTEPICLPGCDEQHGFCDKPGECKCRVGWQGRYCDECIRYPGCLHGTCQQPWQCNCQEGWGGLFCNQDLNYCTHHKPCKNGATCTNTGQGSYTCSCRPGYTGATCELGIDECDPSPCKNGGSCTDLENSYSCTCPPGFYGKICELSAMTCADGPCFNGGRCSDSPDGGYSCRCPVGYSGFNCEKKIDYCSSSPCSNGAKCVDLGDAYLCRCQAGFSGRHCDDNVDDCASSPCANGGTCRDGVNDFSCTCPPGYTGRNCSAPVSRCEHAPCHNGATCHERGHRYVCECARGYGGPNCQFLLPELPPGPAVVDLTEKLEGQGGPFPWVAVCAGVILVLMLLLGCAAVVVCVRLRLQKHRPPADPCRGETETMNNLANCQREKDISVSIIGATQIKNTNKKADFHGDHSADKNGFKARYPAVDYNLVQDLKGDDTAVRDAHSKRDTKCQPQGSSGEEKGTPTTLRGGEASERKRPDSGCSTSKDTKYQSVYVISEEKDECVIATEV

Regarding thrombin, the “induction of FGF1 transcript” value in test [1] (10 μg/ml α-thrombin or 5 μM TRAP) is recorded as “able to induce the expression of the FGF1 transcript”. Besides, in test [1] (NIH 3T3 and Swiss 3T3 cells), the “time at which FGF1 mRNA reached a plateau” value was determined as 2 h and the “time at which FGF1 mRNA was initially detected” value turned out to be 15 min. For the same substance, the Jagged1 cleavage site entry in test [2] was “between residues R348 and G349”. For the same substance, the “cleavage of 134 kDa Jagged1 translation product” value in test [3] is “cleavage of the full-length Jagged1 protein into 39 kDa and 95 kDa fragments”. For the same substance, in test [4], the “proteolytic modification of Delta1 translation product” value is listed as “unable to proteolytically modify the in vitro translation product of the Delta1 transcript”.
